{
  "source": "patent US20070224668A1",
  "about": "“Process for producing 4-vinylguaiacol by biodecaroxylation of ferulic acid” (priority 2006, published 2007)",
  "tested_on": "wild type B. pumilus",
  "experiment": "Activity of resting cell in aqueous organic two-phase system (biotransformation of FA to VG)",
  "settings": "two-phase bioconversion, B. pumilus whole cells",
  "experimental": "The cells were resuspended in 1 ml of 0.1 M phosphate buffer to a concentration (OD600=5) and mixed with an equal volume of organic solvent in flasks. Biotransformation was started at an initial FA concentration of 36 mM. The experiments were performed under the same conditions as in the mono-phase biotransformation process (Example 1).",
  "data": [
    {"smiles": "CCOC(C)=O", "note": "[Ethyl acetate]", "values": [
      {"measurement": "Toxicity of solvent to the cells", "result": "toxic to the cells"}
    ]},
    {"smiles": "CCO", "note": "[Ethanol]", "values": [
      {"measurement": "Toxicity of solvent to the cells", "result": "toxic to the cells"}
    ]}
  ]
}
